Read-outs that look alike come from different tables or passages of the source.
Columns and labels:
Format in all cases: cell-based
[1] = system: microfilariae of Dirofilaria immitis; test: Dirofilaria immitis, Microfilaria (DiMf) In Vitro Assay; conditions: Dirofilaria immitis, 72 h, read-out: DiMf MED, Minimum Effective Dose, D. immitis microfilariae motility, in vitro
[2] = system: D. immitis L4 larvae; test: Dirofilaria immitis, L4 Stage (DiL4) In Vitro Assay; conditions: for minimal effective concentration: Dirofilaria immitis, 72 h, read-out: DiL4 MED, Minimum Effective Dose, D. immitis L4 larvae motility, in vitro; for DiMf/DiL4: larval stage selectivity, ratio of DiMf MED to DiL4 MED
[3] = system: third stage larvae of Haemonchus contortus; test: Haemonchus contortus, Larvae Stage 3 (HcL3) In Vitro Assay; conditions: Haemonchus contortus, 96 h
[4] = read-out: HcL3 MED, Haemonchus contortus third stage larvae in vitro, class mark appended to the Ex # in Table 3
[5] = read-out: HcL3 MED, Minimum Effective Dose, H. contortus third stage larvae, approximately 96 hours
[6] = read-out: HcL3 MED, approximately 96 hours incubation, multiple-resistant field isolate

| Compound | minimal effective concentration [1] [µM] | minimal effective concentration [2] [µM] | DiMf/DiL4 [2] | minimal effective concentration [3, 4] [µM] | minimal effective concentration [3, 5] [µM] | minimal effective concentration [3, 6] [µM] |
| --- | --- | --- | --- | --- | --- | --- |
| CC(C)C[C@H]1C(=O)O[C@H](Cc2ccc(Cc3cnco3)cc2)C(=O)N(C)[C@@H](CC(C)C)C(=O)O[C@H](C)C(=O)N(C)[C@@H](CC(C)C)C(=O)O[C@H](Cc2ccc(Cc3cnco3)cc2)C(=O)N(C)[C@@H](CC(C)C)C(=O)O[C@H](C)C(=O)N1C [Example 3-148, (3S,6R,9S,12R,15S,18R,21S,24R)-3,9,15,21-tetraisobutyl-4,6,10,16,18,22-hexamethyl-12,24-bis(4-(oxazol-5-ylmethyl)benzyl)-1,7,13,19-tetraoxa-4,10,16,22-tetraazacyclotetracosan-2,5,8,11,14,17,20,23-octaone] | 0.001 | 0.0003 | 3.3 | 1 to 3.3 | 3 |  |
| Cc1ncsc1Cc1ccc(C[C@H]2OC(=O)[C@H](CC(C)C)N(C)C(=O)[C@@H](C)OC(=O)[C@H](CC(C)C)N(C)C(=O)[C@@H](Cc3ccc(Cc4scnc4C)cc3)OC(=O)[C@H](CC(C)C)N(C)C(=O)[C@@H](C)OC(=O)[C@H](CC(C)C)N(C)C2=O)cc1 [Example 3-155, (3S,6R,9S,12R,15S,18R,21S,24R)-3,9,15,21-tetraisobutyl-4,6,10,16,18,22-hexamethyl-12,24-bis(4-((4-methylthiazol-5-yl)methyl)benzyl)-1,7,13,19-tetraoxa-4,10,16,22-tetraazacyclotetracosan-2,5,8,11,14,17,20,23-octaone] | 0.0001 | 2e-05 | 5 | < 1 | 0.5 | ≤ 1 |
| CC(C)C[C@H]1C(=O)O[C@H](Cc2ccc(Cc3ccns3)cc2)C(=O)N(C)[C@@H](CC(C)C)C(=O)O[C@H](C)C(=O)N(C)[C@@H](CC(C)C)C(=O)O[C@H](Cc2ccc(Cc3ccns3)cc2)C(=O)N(C)[C@@H](CC(C)C)C(=O)O[C@H](C)C(=O)N1C [Example 3-156, (3S,6R,9S,12R,15S,18R,21S,24R)-3,9,15,21-tetraisobutyl-6,18-bis(4-(isothiazol-5-ylmethyl)benzyl)-4,10,12,16,22,24-hexamethyl-1,7,13,19-tetraoxa-4,10,16,22-tetraazacyclotetracosan-2,5,8,11,14,17,20,23-octaone] | 0.0005 | 0.0001 | 5 |  | 5.6 |  |
| Cc1ccc(Cc2ccc(C[C@H]3OC(=O)[C@H](CC(C)C)N(C)C(=O)[C@@H](C)OC(=O)[C@H](CC(C)C)N(C)C(=O)[C@@H](Cc4ccc(Cc5ccc(C)o5)cc4)OC(=O)[C@H](CC(C)C)N(C)C(=O)[C@@H](C)OC(=O)[C@H](CC(C)C)N(C)C3=O)cc2)o1 [Example 3-157, (3S,6R,9S,12R,15S,18R,21S,24R)-3,9,15,21-tetraisobutyl-4,6,10,16,18,22-hexamethyl-12,24-bis(4-((5-methylfuran-2-yl)methyl)benzyl)-1,7,13,19-tetraoxa-4,10,16,22-tetraazacyclotetracosan-2,5,8,11,14,17,20,23-octaone] | 0.1 | 0.001 | 100 |  | > 100 |  |
| CCOc1ncccc1Cc1ccc(C[C@H]2OC(=O)[C@H](CC(C)C)N(C)C(=O)[C@@H](C)OC(=O)[C@H](CC(C)C)N(C)C(=O)[C@@H](Cc3ccc(Cc4cccnc4OCC)cc3)OC(=O)[C@H](CC(C)C)N(C)C(=O)[C@@H](C)OC(=O)[C@H](CC(C)C)N(C)C2=O)cc1 [Example 3-165, (3S,6R,9S,12R,15S,18R,21S,24R)-6,18-bis(4-((2-ethoxypyridin-3-yl)methyl)benzyl)-3,9,15,21-tetraisobutyl-4,10,12,16,22,24-hexamethyl-1,7,13,19-tetraoxa-4,10,16,22-tetraazacyclotetracosan-2,5,8,11,14,17,20,23-octaone] | 0.2 | 0.001 | 200 |  | > 100 |  |
| CC(C)C[C@H]1C(=O)O[C@H](Cc2ccc(Cc3ccoc3)cc2)C(=O)N(C)[C@@H](CC(C)C)C(=O)O[C@H](C)C(=O)N(C)[C@@H](CC(C)C)C(=O)O[C@H](Cc2ccc(Cc3ccoc3)cc2)C(=O)N(C)[C@@H](CC(C)C)C(=O)O[C@H](C)C(=O)N1C [Example 3-173, (3S,6R,9S,12R,15S,18R,21S,24R)-6,18-bis(4-(furan-3-ylmethyl)benzyl)-3,9,15,21-tetraisobutyl-4,10,12,16,22,24-hexamethyl-1,7,13,19-tetraoxa-4,10,16,22-tetraazacyclotetracosan-2,5,8,11,14,17,20,23-octaone] | 0.003 | < 0.0001 | >30 | 1 to 3.3 | 3.3 |  |
| CC(C)C[C@H]1C(=O)O[C@H](Cc2ccc(Cc3cccnc3N(C)C)cc2)C(=O)N(C)[C@@H](CC(C)C)C(=O)O[C@H](C)C(=O)N(C)[C@@H](CC(C)C)C(=O)O[C@H](Cc2ccc(Cc3cccnc3N(C)C)cc2)C(=O)N(C)[C@@H](CC(C)C)C(=O)O[C@H](C)C(=O)N1C [Example 3-176, (3S,6R,9S,12R,15S,18R,21S,24R)-6,18-bis(4-((2-(dimethylamino)pyridin-3-yl)methyl)benzyl)-3,9,15,21-tetraisobutyl-4,10,12,16,22,24-hexamethyl-1,7,13,19-tetraoxa-4,10,16,22-tetraazacyclotetracosan-2,5,8,11,14,17,20,23-octaone] | 0.004 | 0.0003 | 13.3 | 1 to 3.3 | 1.2 |  |
| CC(C)C[C@H]1C(=O)O[C@H](Cc2ccc(Cc3cnc(N4CCOCC4)nc3)cc2)C(=O)N(C)[C@@H](CC(C)C)C(=O)O[C@H](C)C(=O)N(C)[C@@H](CC(C)C)C(=O)O[C@H](Cc2ccc(Cc3cnc(N4CCOCC4)nc3)cc2)C(=O)N(C)[C@@H](CC(C)C)C(=O)O[C@H](C)C(=O)N1C [Example 3-178, (3S,6R,9S,12R,15S,18R,21S,24R)-3,9,15,21-tetraisobutyl-4,6,10,16,18,22-hexamethyl-12,24-bis(4-((2-morpholinopyrimidin-5-yl)methyl)benzyl)-1,7,13,19-tetraoxa-4,10,16,22-tetraazacyclotetracosan-2,5,8,11,14,17,20,23-octaone] | 0.001 | 0.001 | 1 |  | > 100 |  |
| COc1nccnc1Cc1ccc(C[C@H]2OC(=O)[C@H](CC(C)C)N(C)C(=O)[C@@H](C)OC(=O)[C@H](CC(C)C)N(C)C(=O)[C@@H](Cc3ccc(Cc4nccnc4OC)cc3)OC(=O)[C@H](CC(C)C)N(C)C(=O)[C@@H](C)OC(=O)[C@H](CC(C)C)N(C)C2=O)cc1 [Example 3-193, (3S,6R,9S,12R,15S,18R,21S,24R)-3,9,15,21-tetraisobutyl-6,18-bis(4-((3-methoxypyrazin-2-yl)methyl)benzyl)-4,10,12,16,22,24-hexamethyl-1,7,13,19-tetraoxa-4,10,16,22-tetraazacyclotetracosan-2,5,8,11,14,17,20,23-octaone] | 0.002 | 0.0004 | 5 | < 1 | 1 | ≤ 1 |
| CC(C)C[C@H]1C(=O)O[C@H](Cc2ccc(Cc3cncc(F)c3)cc2)C(=O)N(C)[C@@H](CC(C)C)C(=O)O[C@H](C)C(=O)N(C)[C@@H](CC(C)C)C(=O)O[C@H](Cc2ccc(Cc3cncc(F)c3)cc2)C(=O)N(C)[C@@H](CC(C)C)C(=O)O[C@H](C)C(=O)N1C [Example 3-194, (3S,6R,9S,12R,15S,18R,21S,24R)-6,18-bis(4-((5-fluoropyridin-3-yl)methyl)benzyl)-3,9,15,21-tetraisobutyl-4,10,12,16,22,24-hexamethyl-1,7,13,19-tetraoxa-4,10,16,22-tetraazacyclotetracosan-2,5,8,11,14,17,20,23-octaone] | 0.001 | 0.001 | 1 |  | > 100 |  |
| COc1ccc(C(C)c2ccc(C[C@H]3OC(=O)[C@H](CC(C)C)N(C)C(=O)[C@@H](C)OC(=O)[C@H](CC(C)C)N(C)C(=O)[C@@H](Cc4ccc(C(C)c5ccc(OC)nc5)cc4)OC(=O)[C@H](CC(C)C)N(C)C(=O)[C@@H](C)OC(=O)[C@H](CC(C)C)N(C)C3=O)cc2)cn1 (stereo partly drawn) [Example 3-207, (3S,6R,9S,12R,15S,18R,21S,24R)-3,9,15,21-tetraisobutyl-6,18-bis(4-(1-(6-methoxypyridin-3-yl)ethyl)benzyl)-4,10,12,16,22,24-hexamethyl-1,7,13,19-tetraoxa-4,10,16,22-tetraazacyclotetracosan-2,5,8,11,14,17,20,23-octaone] | 0.05 | 0.001 | 50 |  | > 100 |  |
| COc1nc(C)c(Cc2ccc(C[C@H]3OC(=O)[C@H](CC(C)C)N(C)C(=O)[C@@H](C)OC(=O)[C@H](CC(C)C)N(C)C(=O)[C@@H](Cc4ccc(Cc5sc(OC)nc5C)cc4)OC(=O)[C@H](CC(C)C)N(C)C(=O)[C@@H](C)OC(=O)[C@H](CC(C)C)N(C)C3=O)cc2)s1 [Example 3-209, (3S,6R,9S,12R,15S,18R,21S,24R)-3,9,15,21-tetraisobutyl-6,18-bis(4-((2-methoxy-4-methylthiazol-5-yl)methyl)benzyl)-4,10,12,16,22,24-hexamethyl-1,7,13,19-tetraoxa-4,10,16,22-tetraazacyclotetracosan-2,5,8,11,14,17,20,23-octaone] | 0.01 | 0.0005 | 20 |  | > 100 |  |

Source: patent US11771738B2 (Zoetis Services LLC, priority 2018, dated 2023)
